Assay results: patent US6914045B2, “Glycopeptide antibiotics” (Wyeth Holdings Corporation, priority 2001, dated 2005)
Converted amounts (≈) assume the structure as drawn.

What was measured:
Escherichia coli = experiment: in vitro antibacterial evaluation, MIC by broth dilution; type: cell-based; settings: 18 hours at 35° C.
Streptococcus sp. = experiment: as above; type: cell-based; settings: broth dilution, 18 hours at 35° C.
Outline: (§1)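 Step 1: dilute antibiotic across 64-0.06 μg/mL in Muller-Hinton II […]. Step 2: inoculate at 5×10^5 CFU/mL.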

Enterococcus sp. = experiment: as above; type: cell-based; settings: broth dilution, 18 hours at 35° C.
Outline: as §1

Staphylococcus sp. = experiment: as above; type: cell-based; settings: broth dilution, 18 hours at 35° C.
Outline: as §1

[1] = clinical pathology (serum clinical chemistry) in mice; type: in vivo; settings: CD-1 mice, 20 mg/kg intravenously daily for 9 days, sera day 10
Procedure: 20-day-old CD-1 mice were divided into a vehicle control group (5 mice) and a treatment group (5 mice). Samples of glycopeptide antibiotics were administered at 20 mg/kg intravenously daily for 9 days.

[2] = anatomic pathology (histopathology of heart and kidney) in mice; type: in vivo; settings: CD-1 mice, 20 mg/kg intravenously daily for 9 days, necropsy day 10, microscopic histopathology
Procedure: Samples of tissues from necropsied mice were formalin-fixed, paraffin-embedded, sectioned, stained with hematoxylin and eosin, and examined microscopically. Histopathologic findings were recorded. These findings were subjectively graded on a scale corresponding to slight, mild, moderate, marked and severe as compared to untreated controls.

[3] = system: Staphylococcus aureus-SMITH (GC 4543); experiment: acute lethal infection in mice; type: in vivo; settings: acute lethal infection, female CD-1 mice, intraperitoneal challenge, intravenous 30 min. after infection, 7 day survival
Outline: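 Mice (female CD-1, 20+/−2 gm) receive bacteria ip in broth or hog gastric mucin, then test agent iv after 30 min. Median effective dose is calculated from 7 day survival pooled across 3 tests.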

With `COc1ccc2cc(COCC3OC(OC4C(CO)OC(Oc5ccc(CC6NC(=O)C(C(C)c7ccccc7)NC(=O)CNC(=O)C(CO)NC(=O)C(CC7CNC(=N)N7C7OC(CO)C(O)C(O)C7O)NC(=O)C(CC7CNC(=N)N7)NC6=O)cc5)C(O)C4O)C(O)C(O)C3O)ccc2c1` (stereo not drawn) [Example 245, Cyclo[3-(2-iminoimidazolidin-4-yl)alanyl-3-(3-hexopyranosyl-2-iminoimidazolidin-4-yl)-alanylserylglycyl-β-methylphenylalanyl-O-[4-O-[6-O-[(6-methoxy-2-naphthyl)methyl]-hexopyranosyl]hexopyranosyl]tyrosyl]] the “MIC Escherichia coli (ATCC 25922)” value (Escherichia coli) was 64 µg/mL (≈ 44.6 µM), the “MIC Escherichia coli (GC 4559)” value (Escherichia coli) was 32 µg/mL (≈ 22.3 µM) and the “MIC Escherichia coli (GC 4560)” value (Escherichia coli) was 4 µg/mL (≈ 2.79 µM). The “MIC Streptococcus agalactiae (GC 4564)” value (Streptococcus sp.) was 4 µg/mL (≈ 2.79 µM), the “MIC Streptococcus pneumoniae (ATCC 6301)” value (Streptococcus sp.) was 2 µg/mL (≈ 1.4 µM) and the “MIC Streptococcus pneumoniae (GC 1894)” value (Streptococcus sp.) was 1 µg/mL (≈ 0.698 µM). For the same compound, the “MIC Streptococcus pneumoniae (GC 4565)” value (Streptococcus sp.) was 4 µg/mL (≈ 2.79 µM), the “MIC Streptococcus pyogenes (GC 4563)” value (Streptococcus sp.) was 4 µg/mL (≈ 2.79 µM) and the “MIC Streptococcus pneumoniae (ATCC 6301)” value (Streptococcus sp.; inoculum 5×10^5 CFU/mL, strain ATCC 6301) was 2 µg/mL (≈ 1.4 µM). For the same compound, the “MIC Streptococcus pneumoniae (GC 1894)” value (Streptococcus sp.; inoculum 5×10^5 CFU/mL, strain GC 1894) was 1 µg/mL (≈ 0.698 µM), the “MIC Streptococcus pyogenes (GC 4563)” value (Streptococcus sp.; inoculum 5×10^5 CFU/mL, strain GC 4563) was 4 µg/mL (≈ 2.79 µM) and the “MIC Streptococcus agalactiae (GC 4564)” value (Streptococcus sp.; inoculum 5×10^5 CFU/mL, strain GC 4564) was 4 µg/mL (≈ 2.79 µM). For the same compound, the “MIC Streptococcus pneumoniae (GC 4565)” value (Streptococcus sp.; inoculum 5×10^5 CFU/mL, strain GC 4565) was 4 µg/mL (≈ 2.79 µM), the “MIC Enterococcus avium (GC 4558)” value (Enterococcus sp.) was 16 µg/mL (≈ 11.2 µM) and the “MIC Enterococcus faecalis (ATCC 29212)” value (Enterococcus sp.) was 32 µg/mL (≈ 22.3 µM). The “MIC Enterococcus faecalis (GC 2242)” value (Enterococcus sp.) was 16 µg/mL (≈ 11.2 µM), the “MIC Enterococcus faecalis (GC 2691)” value (Enterococcus sp.) was 32 µg/mL (≈ 22.3 µM) and the “MIC Enterococcus faecalis (GC 3059)” value (Enterococcus sp.) was 16 µg/mL (≈ 11.2 µM). For the same compound, the “MIC Enterococcus faecalis (GC 4552)” value (Enterococcus sp.) was 16 µg/mL (≈ 11.2 µM), the “MIC Enterococcus faecalis (GC 4553)” value (Enterococcus sp.) was 16 µg/mL (≈ 11.2 µM) and the “MIC Enterococcus faecalis (GC 4554)” value (Enterococcus sp.) was 32 µg/mL (≈ 22.3 µM). For the same compound, the “MIC Enterococcus faecalis (GC 6189)” value (Enterococcus sp.) was 32 µg/mL (≈ 22.3 µM), the “MIC Enterococcus faecium (GC 2243)” value (Enterococcus sp.) was 16 µg/mL (≈ 11.2 µM) and the “MIC Enterococcus faecium (GC 4556)” value (Enterococcus sp.) was 16 µg/mL (≈ 11.2 µM). For the same compound, the “MIC Enterococcus faecium (GC 4557)” value (Enterococcus sp.) was 4 µg/mL (≈ 2.79 µM), the “MIC Enterococcus faecalis (ATCC 29212)” value (Enterococcus sp.; strain ATCC 29212) was 32 µg/mL (≈ 22.3 µM) and the “MIC Enterococcus faecium (GC 2243)” value (Enterococcus sp.; strain GC 2243) was 16 µg/mL (≈ 11.2 µM). The “MIC Enterococcus faecalis (GC 4552)” value (Enterococcus sp.; strain GC 4552) was 16 µg/mL (≈ 11.2 µM), the “MIC Enterococcus faecalis (GC 4553)” value (Enterococcus sp.; strain GC 4553) was 16 µg/mL (≈ 11.2 µM) and the “MIC Enterococcus faecalis (GC 4554)” value (Enterococcus sp.; strain GC 4554) was 32 µg/mL (≈ 22.3 µM). The “MIC Enterococcus faecium (GC 4556)” value (Enterococcus sp.; strain GC 4556) was 16 µg/mL (≈ 11.2 µM), the “MIC Enterococcus faecium (GC 4557)” value (Enterococcus sp.; strain GC 4557) was 4 µg/mL (≈ 2.79 µM) and the “MIC Enterococcus avium (GC 4558)” value (Enterococcus sp.; strain GC 4558) was 16 µg/mL (≈ 11.2 µM). For the same compound, the “MIC Enterococcus faecalis (GC 6189)” value (Enterococcus sp.; strain GC 6189) was 32 µg/mL (≈ 22.3 µM), the “MIC Enterococcus faecalis (GC 2242)” value (Enterococcus sp.; inoculum 5×10^5 CFU/mL, strain GC 2242) was 16 µg/mL (≈ 11.2 µM) and the “MIC Enterococcus faecalis (GC 2691)” value (Enterococcus sp.; inoculum 5×10^5 CFU/mL, strain GC 2691) was 32 µg/mL (≈ 22.3 µM). The “MIC Enterococcus faecalis (GC 3059)” value (Enterococcus sp.; inoculum 5×10^5 CFU/mL, strain GC 3059) was 16 µg/mL (≈ 11.2 µM), the “MIC Coagulase Negative Staphylococcus (GC 4547)” value (Staphylococcus sp.) was 4 µg/mL (≈ 2.79 µM) and the “MIC Coagulase Negative Staphylococcus (GC 4548)” value (Staphylococcus sp.) was 2 µg/mL (≈ 1.4 µM). The “MIC Coagulase Negative Staphylococcus (GC 4549)” value (Staphylococcus sp.) was 1 µg/mL (≈ 0.698 µM), the “MIC Coagulase Negative Staphylococcus (GC 4551)” value (Staphylococcus sp.) was 8 µg/mL (≈ 5.58 µM) and the “MIC Coagulase Negative Staphylococcus (GC 6257)” value (Staphylococcus sp.) was 2 µg/mL (≈ 1.4 µM). The “MIC Staphylococcus aureus (ATCC 29213)” value (Staphylococcus sp.) was 4 µg/mL (≈ 2.79 µM), the “MIC Staphylococcus aureus (GC 1131)” value (Staphylococcus sp.) was 8 µg/mL (≈ 5.58 µM) and the “MIC Staphylococcus aureus (GC 3051)” value (Staphylococcus sp.) was 4 µg/mL (≈ 2.79 µM). For the same compound, the “MIC Staphylococcus aureus (GC 3053)” value (Staphylococcus sp.) was 4 µg/mL (≈ 2.79 µM), the “MIC Staphylococcus aureus (GC 4541)” value (Staphylococcus sp.) was 4 µg/mL (≈ 2.79 µM) and the “MIC Staphylococcus aureus (GC 4542)” value (Staphylococcus sp.) was 4 µg/mL (≈ 2.79 µM). The “MIC Staphylococcus aureus (GC 4544)” value (Staphylococcus sp.) was 8 µg/mL (≈ 5.58 µM), the “MIC Staphylococcus aureus (GC 4545)” value (Staphylococcus sp.) was 4 µg/mL (≈ 2.79 µM) and the “MIC Staphylococcus aureus-SMITH (GC 4543)” value (Staphylococcus sp.) was 4 µg/mL (≈ 2.79 µM). The “MIC Staphylococcus haemolyticus (GC 4546)” value (Staphylococcus sp.) was 4 µg/mL (≈ 2.79 µM), the “MIC Staphylococcus aureus (ATCC 29213)” value (Staphylococcus sp.; strain ATCC 29213) was 4 µg/mL (≈ 2.79 µM) and the “MIC Staphylococcus aureus (GC 1131)” value (Staphylococcus sp.; strain GC 1131) was 8 µg/mL (≈ 5.58 µM). The “MIC Staphylococcus aureus (GC 3051)” value (Staphylococcus sp.; strain GC 3051) was 4 µg/mL (≈ 2.79 µM), the “MIC Staphylococcus aureus (GC 3053)” value (Staphylococcus sp.; strain GC 3053) was 4 µg/mL (≈ 2.79 µM) and the “MIC Staphylococcus aureus (GC 4541)” value (Staphylococcus sp.; strain GC 4541) was 4 µg/mL (≈ 2.79 µM). The “MIC Staphylococcus aureus (GC 4542)” value (Staphylococcus sp.; strain GC 4542) was 4 µg/mL (≈ 2.79 µM), the “MIC Staphylococcus aureus-SMITH (GC 4543)” value (Staphylococcus sp.; strain GC 4543) was 4 µg/mL (≈ 2.79 µM) and the “MIC Staphylococcus aureus (GC 4544)” value (Staphylococcus sp.; strain GC 4544) was 8 µg/mL (≈ 5.58 µM). For the same compound, the “MIC Staphylococcus aureus (GC 4545)” value (Staphylococcus sp.; strain GC 4545) was 4 µg/mL (≈ 2.79 µM), the “MIC Staphylococcus haemolyticus (GC 4546)” value (Staphylococcus sp.; strain GC 4546) was 4 µg/mL (≈ 2.79 µM) and the “MIC Coagulase Negative Staphylococcus (GC 4547)” value (Staphylococcus sp.; strain GC 4547) was 4 µg/mL (≈ 2.79 µM). The “MIC Coagulase Negative Staphylococcus (GC 4548)” value (Staphylococcus sp.; strain GC 4548) was 2 µg/mL (≈ 1.4 µM), the “MIC Coagulase Negative Staphylococcus (GC 4549)” value (Staphylococcus sp.; strain GC 4549) was 1 µg/mL (≈ 0.698 µM) and the “MIC Coagulase Negative Staphylococcus (GC 4551)” value (Staphylococcus sp.; strain GC 4551) was 8 µg/mL (≈ 5.58 µM). The “MIC Coagulase Negative Staphylococcus (GC 6257)” value (Staphylococcus sp.; strain GC 6257) was 2 µg/mL (≈ 1.4 µM), the “Clinical Chemistry (Day 10) % of Control, BUN” value [1] was “+160%” and the “Clinical Chemistry (Day 10) % of Control, Creatinine” value [1] was “+138%”. For the same compound, the “Anatomical Pathology (Day 10), Heart” value [2] was 0, the “Anatomical Pathology (Day 10), Kidney” value [2] was “+++” and the median effective dose (ED50), Staphylococcus aureus-SMITH (GC 4543) [3] was 4 mg/kg.
